Measured values taken from US11780839B2, “Compounds for treating Huntington's disease” (PTC THERAPEUTICS, INC., priority 2018, dated 2023).

Test system: Endogenous Huntingtin Protein
Assay: Endogenous Huntingtin Protein Assay (ELISA-based Meso Scale Discovery electrochemiluminescence)
Assay type: cell-based
Conditions: MSD electrochemiluminescence, Table 1
In short: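 Huntingtin was captured overnight at 4 °C on plates coated with 1 μg/mL MW1 (polyQ-expanded) or MAB2166 antibody and BSA-blocked. Detection used a rabbit monoclonal and then a SULFO-TAG goat anti-rabbit antibody (0.25 μg/mL, 1 h each, room temperature). Signal was read by electrochemiluminescence.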

IC50 [nM] | Compound
≤ 100 | C[C@@H]1CN(c2ncc(-c3ccc(-c4ccc5nccn5n4)cc3O)nn2)C[C@H](C)N1 [Cpd 385, 2-{3-[(3R,5S)-3,5-dimethylpiperazin-1-yl]-1,2,4-triazin-6-yl}-5-(imidazo[1,2-b]pyridazin-6-yl)phenol]
100 to 500 | CN1CCC(Nc2ncc(-c3ccc(-c4cn[nH]c4)cc3O)nn2)CC1 [Cpd 52, 2-{3-[(1-methylpiperidin-4-yl)amino]-1,2,4-triazin-6-yl}-5-(1H-pyrazol-4-yl)phenol]
≤ 100 | Cc1cn(-c2ccc(-c3cnc(NC4CC(C)(C)NC(C)(C)C4)nn3)c(O)c2)cn1 [Cpd 274, 5-(4-methyl-1H-imidazol-1-yl)-2-{3-[(2,2,6,6-tetramethylpiperidin-4-yl)amino]-1,2,4-triazin-6-yl}phenol]
1000 to 3000 | CC(C)NC1CCN(c2ncc(-c3ccc(-c4ccc5c(cnn5C)c4)cc3O)nn2)C1 (centres unmarked) [Cpd 330, 5-(1-methyl-1H-indazol-5-yl)-2-(3-{3-[(propan-2-yl)amino]pyrrolidin-1-yl}-1,2,4-triazin-6-yl)phenol]
≤ 100 | Cn1cnc(-c2ccc(-c3cnc(N[C@H]4CC(C)(C)NC(C)(C)[C@H]4F)nn3)c(O)c2)cc1=O [Cpd 246, 6-[4-(3-{[(3S,4S)-3-fluoro-2,2,6,6-tetramethylpiperidin-4-yl]amino}-1,2,4-triazin-6-yl)-3-hydroxyphenyl]-3-methylpyrimidin-4(3H)-one]
100 to 500 | Oc1cc(-c2cn[nH]c2)ccc1-c1cnc(N2CC3(CNC3)C2)nn1 [Cpd 118, 2-[3-(2,6-diazaspiro[3.3]heptan-2-yl)-1,2,4-triazin-6-yl]-5-(1H-pyrazol-4-yl)phenol]
≤ 100 | CC1(NC2CCN(c3ncc(-c4ccc(-c5cn[nH]c5)cc4O)nn3)C2)CCOCC1 (stereo not drawn) [Cpd 362, 2-(3-{3-[(4-methyloxan-4-yl)amino]pyrrolidin-l-yl}-1,2,4-triazin-6-yl)-5-(1H-pyrazol-4-yl)phenol]
100 to 500 | Oc1cc(-c2cn[nH]c2)ccc1-c1cnc(N2C[C@@H]3CCCN[C@@H]3C2)nn1 [Cpd 306, 2-{3-[(4aS,7aS)-octahydro-6H-pyrrolo[3,4-b]pyridin-6-yl]-1,2,4-triazin-6-yl}-5-(1H-pyrazol-4-yl)phenol]
≤ 100 | COCC(C)NC1CCN(c2ncc(-c3ccc(-c4cn[nH]c4)cc3O)nn2)C1 (centres unmarked) [Cpd 336, 2-(3-{3-[(1-methoxypropan-2-yl)amino]pyrrolidin-1-yl}-1,2,4-triazin-6-yl)-5-(1H-pyrazol-4-yl)phenol]
≤ 100 | Cn1nnc(-c2ccc(-c3cnc(NC4CC(C)(C)NC(C)(C)C4)nn3)c(O)c2)n1 [Cpd 267, 5-(2-methyl-2H-tetrazol-5-yl)-2-{3-[(2,2,6,6-tetramethylpiperidin-4-yl)amino]-1,2,4-triazin-6-yl}phenol]
≤ 100 | Oc1cc(-c2cn[nH]c2)ccc1-c1cnc(N2CCC(NC3CCC(F)C3)C2)nn1 (centres unmarked) [Cpd 420, 2-(3-{3-[(3-fluorocyclopentyl)amino]pyrrolidin-1-yl}-1,2,4-triazin-6-yl)-5-(1H-pyrazol-4-yl)phenol]
1000 to 3000 | CN1CCC2(CC1)CN(c1ncc(-c3ccc(-c4cn5ccnc5cn4)cc3O)nn1)C2 [Cpd 257, 5-(imidazo[1,2-a]pyrazin-6-yl)-2-[3-(7-methyl-2,7-diazaspiro[3.5]nonan-2-yl)-1,2,4-triazin-6-yl]phenol]
≤ 100 | Oc1cc(-c2cn[nH]c2)ccc1-c1cnc(N2CC[C@H](CNC3CCOCC3)C2)nn1 [Cpd 398, 2-{3-[(3R)-3-{[(oxan-4-yl)amino]methyl}pyrrolidin-1-yl]-1,2,4-triazin-6-yl}-5-(1H-pyrazol-4-yl)phenol]
≤ 100 | Oc1cc(-c2cn[nH]c2)ccc1-c1cnc(N2CC[C@H](NC3CCC3)C2)nn1 [Cpd 400, 2-{3-[(3S)-3-(cyclobutylamino)pyrrolidin-1-yl]-1,2,4-triazin-6-yl}-5-(1H-pyrazol-4-yl)phenol]
≤ 100 | Cn1cc(-c2ccc(-c3cnc(NC4CC(C)(C)NC(C)(C)C4)nn3)c(O)c2)cn1 [Cpd 199, 5-(1-methyl-1H-pyrazol-4-yl)-2-{3-[(2,2,6,6-tetramethylpiperidin-4-yl)amino]-1,2,4-triazin-6-yl}phenol]
≤ 100 | CN(C)[C@H]1CC[C@@H]2CN(c3ncc(-c4ccc(-c5cn[nH]c5)cc4O)nn3)C[C@@H]21 [Cpd 167, 2-{3-[(3aR,4S,6aS)-4-(dimethylamino)hexahydrocyclopenta[c]pyrrol-2(1H)-yl]-1,2,4-triazin-6-yl}-5-(1H-pyrazol-4-yl)phenol]
≤ 100 | Oc1cc(-c2cn[nH]c2)ccc1-c1cnc(N2C[C@H]3CNCC[C@H]3C2)nn1 [Cpd 327, 2-{3-[(3aR,7aR)-octahydro-2H-pyrrolo[3,4-c]pyridin-2-yl]-1,2,4-triazin-6-yl}-5-(1H-pyrazol-4-yl)phenol]
≤ 100 | Oc1cc(-c2cn[nH]c2)ccc1-c1cnc(N2CCC3(CCCN3)C2)nn1 (centres unmarked) [Cpd 339, 2-[3-(1,7-diazaspiro[4.4]nonan-7-yl)-1,2,4-triazin-6-yl]-5-(1H-pyrazol-4-yl)phenol]
≤ 100 | CC1(C)CC(Nc2ncc(-c3ccc(-c4cncnn4)cc3O)nn2)CC(C)(C)N1 [Cpd 305, 2-{3-[(2,2,6,6-tetramethylpiperidin-4-yl)amino]-1,2,4-triazin-6-yl}-5-(1,2,4-triazin-6-yl)phenol]
≤ 100 | CC(C)NC1CCN(c2ncc(-c3ccc(-c4c[nH]nn4)cc3O)nn2)C1 (centres unmarked) [Cpd 258, 2-(3-{3-[(propan-2-yl)amino]pyrrolidin-1-yl}-1,2,4-triazin-6-yl)-5-(1H-1,2,3-triazol-4-yl)phenol]

Compound | IC50 [nM]
CN(c1ncc(-c2ccc(-c3ccn4nnnc4c3)cc2O)nn1)C1CC(C)(C)NC(C)(C)C1 [Cpd 155, 2-{3-[methyl(2,2,6,6-tetramethylpiperidin-4-yl)amino]-1,2,4-triazin-6-yl}-5-(tetrazolo[1,5-a]pyridin-7-yl)phenol] | ≤ 100
CN(c1ncc(-c2ccc(-c3ccnnc3)cc2O)nn1)C1CC(C)(C)NC(C)(C)C1 [Cpd 60, 2-{3-[methyl(2,2,6,6-tetramethylpiperidin-4-yl)amino]-1,2,4-triazin-6-yl}-5-(pyridazin-4-yl)phenol] | ≤ 100
CN(c1ncc(-c2ccc(-n3cc(O)cn3)cc2O)nn1)C1CC(C)(C)NC(C)(C)C1 [Cpd 90, 1-(3-hydroxy-4-{3-[methyl(2,2,6,6-tetramethylpiperidin-4-yl)amino]-1,2,4-triazin-6-yl}phenyl)-1H-pyrazol-4-ol] | ≤ 100
CN(c1ncc(-c2ccc(-c3ccnc(Cl)n3)cc2O)nn1)C1CC(C)(C)NC(C)(C)C1 [Cpd 130, 5-(2-chloropyrimidin-4-yl)-2-{3-[methyl(2,2,6,6-tetramethylpiperidin-4-yl)amino]-1,2,4-triazin-6-yl}phenol] | 100 to 500
CN(c1ncc(-c2ccc(-c3cnn(C)c3)cc2O)nn1)[C@H]1C[C@]2(C)CC[C@](C)(C1)N2 [Cpd 408] | ≤ 100
CN(c1cnc(-c2ccc(-c3ccccn3)cc2O)nn1)C1CC(C)(C)NC(C)(C)C1 [Cpd 393, 2-{6-[methyl(2,2,6,6-tetramethylpiperidin-4-yl)amino]-1,2,4-triazin-3-yl}-5-(pyridin-2-yl)phenol] | ≤ 100
CN(c1ncc(-c2ccc(-n3cc(C#N)cn3)cc2O)nn1)C1CC(C)(C)NC(C)(C)C1 [Cpd 135, 1-(3-hydroxy-4-{3-[methyl(2,2,6,6-tetramethylpiperidin-4-yl)amino]-1,2,4-triazin-6-yl}phenyl)-1H-pyrazole-4-carbonitrile] | 100 to 500
Cc1cn2nc(-c3ccc(-c4cnc(N(C)C5CC(C)(C)NC(C)(C)C5)nn4)c(O)c3)ccc2n1 [Cpd 142, 5-(2-methylimidazo[1,2-b]pyridazin-6-yl)-2-{3-[methyl(2,2,6,6-tetramethylpiperidin-4-yl)amino]-1,2,4-triazin-6-yl}phenol] | ≤ 100
CN(c1ncc(-c2ccc(-n3cnc(Cl)c3)cc2O)nn1)C1CC(C)(C)NC(C)(C)C1 [Cpd 59, 5-(4-chloro-1H-imidazol-1-yl)-2-{3-[methyl(2,2,6,6-tetramethylpiperidin-4-yl)amino]-1,2,4-triazin-6-yl}phenol] | ≤ 100
COc1cc(-c2ccc(-c3cnc(N(C)C4CC(C)(C)NC(C)(C)C4)nn3)c(O)c2)ncn1 [Cpd 2, 5-(6-methoxypyrimidin-4-yl)-2-{3-[methyl(2,2,6,6-tetramethylpiperidin-4-yl)amino]-1,2,4-triazin-6-yl}phenol] | ≤ 100
CN(c1ncc(-c2ccc(-c3cnc4[nH]ncc4c3)cc2O)nn1)C1CC(C)(C)NC(C)(C)C1 [Cpd 132, 2-{3-[methyl(2,2,6,6-tetramethylpiperidin-4-yl)amino]-1,2,4-triazin-6-yl}-5-(1H-pyrazolo[3,4-b]pyridin-5-yl)phenol] | 100 to 500
CN(c1ncc(-c2ccc(-c3ncn(C)n3)cc2O)nn1)C1CC(C)(C)NC(C)(C)C1 [Cpd 62, 2-{3-[methyl(2,2,6,6-tetramethylpiperidin-4-yl)amino]-1,2,4-triazin-6-yl}-5-(1-methyl-1H-1,2,4-triazol-3-yl)phenol] | 100 to 500
CN(c1ncc(-c2ccc(-c3cn(C)nc3F)cc2O)nn1)C1CC(C)(C)NC(C)(C)C1 [Cpd 18, 5-(3-fluoro-1-methyl-1H-pyrazol-4-yl)-2-{3-[methyl(2,2,6,6-tetramethylpiperidin-4-yl)amino]-1,2,4-triazin-6-yl}phenol] | ≤ 100
CN(c1ncc(-c2ccc(-c3cn(C)cn3)cc2O)nn1)C1CC(C)(C)NC(C)(C)C1 [Cpd 75, 5-(1-methyl-1H-imidazol-4-yl)-2-{3-[methyl(2,2,6,6-tetramethylpiperidin-4-yl)amino]-1,2,4-triazin-6-yl}phenol] | > 500
Cc1nc2c(C)cc(-c3ccc(-c4cnc(N(C)C5CC(C)(C)NC(C)(C)C5)nn4)c(O)c3)nc2o1 [Cpd 169, 5-(2,7-dimethyl[1,3]oxazolo[5,4-b]pyridin-5-yl)-2-{3-[methyl(2,2,6,6-tetramethylpiperidin-4-yl)amino]-1,2,4-triazin-6-yl}phenol] | ≤ 100
